Earlier results as cited in US4294824A, “Extracts of the hemopoietic system” (priority 1975, dated 1981).

Conditions: lists continue in the following blocks

| Compound | SOME SIDE EFFECTS AND MAJOR TOXICITY |
| --- | --- |
| O=P1(N(CCCl)CCCl)NCCCO1 (centres unmarked) [CYCLOPHOSPHAMIDE, cyclophosphamide] | Leucopenia, anorexia, nausea, vomiting. diarrhoea |
| Nc1ccn([C@@H]2O[C@H](CO)[C@@H](O)[C@@H]2O)c(=O)n1 [CYTOSINE ARABINOSIDE, cystosine arabinoside] | Myelosuppression, bone marrow depression, nausea |
| COc1cccc2c1C(=O)c1c(O)c3c(c(O)c1C2=O)C[C@@](O)(C(C)=O)C[C@@H]3O[C@H]1C[C@H](N)[C@H](O)[C@H](C)O1 [DAUNORUBICIN, daunorubicin] | Myelosuppression, leucopenia, anaemia |
| CN(Cc1cnc2nc(N)nc(N)c2n1)c1ccc(C(=O)N[C@@H](CCC(=O)O)C(=O)O)cc1 [METHOTREXATE, methotrexate] | Myelosuppression, bone marrow depression, leucopenia |
| CC[C@]1(O)C[C@H]2CN(CCc3c([nH]c4ccccc34)[C@@](C(=O)OC)(c3cc4c(cc3OC)N(C=O)[C@H]3[C@@](O)(C(=O)OC)[C@H](OC(C)=O)[C@]5(CC)C=CCN6CC[C@]43[C@@H]65)C2)C1 [VINCRISTINE, vincristine] | Peripheral neuropathy, adynamic ileus, myopathy |
